Values after ≈ are worked out from the molar mass of the structure shown. Values joined by “and” are separate entries in the source; they are usually repeats but may differ in a detail not shown here. Equal entries are not always repeated.
Experiments:
in vitro [1] = details: rat, hepatocytes
[2] = DNDI: Lipophilicity (gLogD) at pH 7.4; details: buffer, pH 7.4, logD
[3] = DNDI: Lipophilicity (gLogD) at pH 3; details: buffer, pH 3, logD
[4] = DNDI: Cytotoxicity in vitro, against rat skeletal myoblast (L-6) cells; details: L-6 cells (skeletal myoblasts), IC50
in vitro [5] = details: human, microsomes
in vitro [6] = details: mouse, microsomes
in vitro [7] = details: mouse, microsomes; remark: listed apart in the source
[8] = DNDI: Solubility in phosphate buffer at pH 6.5 determined by nephelometry; details: phosphate buffer, pH 6.5, Kinetic
Trypanosoma cruzi [9] = assay: (§1) DNDI: Chagas in Vitro; assay type: functional, Tulahuen C4 (LacZ)
in vitro [10] = details: rat, microsomes
[11] = DNDI: Solubility in 0.01M HCl at pH 2 determined by nephelometry; details: 0.01M HCl, pH 2, Kinetic
[12] = DNDI: Metabolism; assay type: ADME, Microsome; details: rat, microsomes
Trypanosoma cruzi [13] = assay: as §1; assay type: functional, organism-based, Tulahuen C4 (LacZ)
in vitro [14] = details: human, microsomes, t (1 / 2)
in vitro [15] = details: rat, microsomes; remark: listed apart in the source
CYP3A4 [16] = molecular target: T1, CYP3A4 (Homo sapiens, UniProt P08684); assay: DNDI: Human CYP3A4 inhibition at 10 uM determined using 6b-hydroxylation of testosterone; details: probe testosterone (6b-hydroxylation)
T1 sequence (P08684 whole entry): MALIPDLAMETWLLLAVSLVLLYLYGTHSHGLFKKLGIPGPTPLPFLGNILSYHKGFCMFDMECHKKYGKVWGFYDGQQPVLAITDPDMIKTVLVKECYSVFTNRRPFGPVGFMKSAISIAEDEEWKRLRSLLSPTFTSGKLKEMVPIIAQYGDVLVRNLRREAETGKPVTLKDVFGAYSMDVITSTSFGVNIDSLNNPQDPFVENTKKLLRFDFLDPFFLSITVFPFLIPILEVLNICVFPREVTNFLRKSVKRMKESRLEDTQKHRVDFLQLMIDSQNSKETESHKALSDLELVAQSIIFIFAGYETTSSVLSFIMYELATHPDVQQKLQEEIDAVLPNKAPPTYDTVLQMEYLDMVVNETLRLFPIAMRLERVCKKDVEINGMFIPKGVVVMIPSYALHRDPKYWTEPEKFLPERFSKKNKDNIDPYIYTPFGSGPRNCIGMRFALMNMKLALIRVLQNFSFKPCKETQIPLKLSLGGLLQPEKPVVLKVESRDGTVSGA

Cytochrome P450 3A4 = Cytochrome P450 3A4 (Homo sapiens, UniProt P08684); assay: DNDI: Human CYP3A4 inhibition determined using 6b-hydroxylation of testosterone
Chain of Cytochrome P450 3A4 (P08684 whole entry): as above

in vitro [17] = details: human, microsomes, EH
Leishmania infantum = assay: DNDI: Leish (macro) in Vitro; assay type: functional, organism-based, MHOM/MA(BE)/67
[18] = system: Trypanosoma brucei rhodesiense; assay: DNDI: HAT in Vitro; assay type: functional, organism-based, ATCC 30027; details: Trypanosoma brucei, ATCC 30027
[19] = DNDI: Cytotoxicity in vitro, against human lung fibroblast (MRC-5) cells; details: MRC-5 cells (lung fibroblasts)
Trypanosoma cruzi [20] = assay: DNDI: Chagas in vivo at 20 mg/kg, 20 days 2x; assay type: functional, Tulahuen Swiss po
CYP3A4 [21] = molecular target: T1, CYP3A4; assay: DNDI: Human CYP3A4 inhibition at 1 uM determined using 6b-hydroxylation of testosterone; details: probe testosterone (6b-hydroxylation)
[22] = Trypanosoma cruzi, Tulahuen C4 (LacZ)

Row | SMILES | chromatographic logD [2] | chromatographic logD [3] | IC50 [4] [nM] | microsomal CLint (in vitro [5]) [µL/min/mg] | half-life (in vitro [6]) [min] | microsomal CLint (in vitro [7]) [µL/min/mg] | solubility kinetic [8] [µg/mL] | IC90 (Trypanosoma cruzi [9]; [22]) [nM] | microsomal CLint (in vitro [10]) [µL/min/mg] | solubility kinetic [11] [µg/mL] | IC50 (Trypanosoma cruzi [13]; [22]) [nM] | half-life (in vitro [14]) [min] | half-life (in vitro [15]) [min] | inhibition at 10 µM (CYP3A4 [16]) [%] | IC50 (Cytochrome P450 3A4) [nM] | hepatic extraction ratio (in vitro [17]) | other results
1 | CO/N=C(\C)c1ccc(-n2ccnc2)c(NC(=O)c2ccc(-c3ccccc3)cc2)c1 | 3.9 | 3.1 | > 100000 | 30 | 56 | 31 | < 1.6 | 65 | 43 | > 100 | 20.4 | 58 | 40 |  |  |  | CLhep predicted (in vitro [1]): 24.5 mL/min/kg; CLblood [12]: 35 mL/min/kg
2 | O=C(Nc1ccccc1-n1ccnc1)c1cnc(-c2ccccc2)nc1 | 2.4 | 1.3 | > 100000 | 18 |  |  |  | 148 |  | > 100 | 63 | 99 |  | 27 | > 10000 | 0.4 | 
3 | O=C(Nc1cc(C(F)(F)F)ccc1-n1ccnc1)c1cnc(-c2ccccc2)nc1 |  |  | > 100000 |  |  |  |  | > 100 |  |  | > 100 |  |  |  |  |  | IC50 (Leishmania infantum; Leishmania infantum, MHOM/MA(BE)/67): > 64000 nM; IC50 [18]: > 10000 nM; IC50 [19]: > 64000 nM
4 | CO/N=C(\C)c1ccc(-n2ccnc2)c(NC(=O)c2ccc(-c3ccccc3)nc2)c1 | 3.3 | 2.5 | > 100000 | 26 | 53 | 33 |  | 29.1 | 48 | > 100 | 13 | 66 | 36 |  |  |  | IC90 (Trypanosoma cruzi [9]): 24.5 nM; IC50 (Trypanosoma cruzi [13]): 9 nM
5 | CCN(Cc1c[nH]cn1)c1ccc(-c2nc3ccccc3s2)cc1 | 3.4 | 2.1 | 36000 | < 7 |  |  | 3.1 (≈ 9.27 µM) | 156 |  | > 100 | 15.3 | > 250 |  | 80 | 4000 | < 0.23 | PCR cure rate (Trypanosoma cruzi [20]): 0%; Parasitemia clearance after immunosuppression (Trypanosoma cruzi [20]): 0%; Parasitemia clearance after treatment (Trypanosoma cruzi [20]): 80%; inhibition at 1 µM (CYP3A4 [21]): 37%
6 | Cc1ccc(-n2ccnc2)c(NC(=O)c2cnc(-c3ccccc3)nc2)c1 | 2.7 | 1.6 | > 100000 | 93 |  |  |  | 151 |  | > 100 | 23 | 19 |  | 49 | > 10000 | 0.78 | inhibition at 1 µM (CYP3A4 [21]): 15%
7 | CCN(c1ccccc1)S(=O)(=O)c1ccc(Cl)c(NC(=O)c2ccc3c(c2)CCNC3)c1 |  |  | 19900 | 334 |  |  | 14.5 (≈ 30.8 µM) | > 1000 |  | 95.9 (≈ 204 µM) | > 1000 | 5.2 |  |  | 5830 | 0.943 | IC50 (Leishmania infantum): 2160 nM and 8000 nM; IC50 [18]: 604 nM; IC50 [19]: 29400 nM
8 | CO/N=C(\C)c1ccc(-n2ccnc2)c(NC(=O)c2cnc(-c3ccccc3)cn2)c1 | 3.9 | 2.6 | 58700 | 30 | 61 | 29 | < 1.6 | 8.9 | 50 | 25 (≈ 60.6 µM) | 2.53 | 58 | 35 |  |  |  | CLhep predicted (in vitro [1]): 32.3 mL/min/kg; CLblood [12]: 38 mL/min/kg

Reference: ChEMBL document CHEMBL2448688, “Selection and optimization of hits from a high-throughput phenotypic screen against Trypanosoma cruzi. Exported from HEOS 25-Oct-2013. See also related datasets CHEMBL3137440 and CHEMBL3137386”
